In publication PMC8467532, “DYRK1A Kinase Inhibitors Promote β-Cell Survival and Insulin Homeostasis” (Cells, 2021):
Where two headings read alike, the source gives them in different places.

Legend:
DYRK1A kinase domain = target: T1, DYRK1A kinase domain (Homo sapiens, UniProt Q13627); test: MST direct binding assay; conditions: MST direct binding, 20 nM fluorescent-labelled DYRK1A kinase domain
T1 construct: kinase domain of DYRK1A (126–490) was cloned into pET24a with C-terminal His-tag; made in house; host or cells: E. coli BL21 (DE3) RIL

DYRK1A [1] = target: T2, DYRK1A (Homo sapiens, UniProt Q13627); test: Cook activity assay (ATP regenerative NADH consuming DYRK1A activity assay); format: biochemical; conditions: Cook assay
T2 construct: kinase domain of DYRK1A (126–490) was cloned into pET24a with C-terminal His-tag; His-tag (C); made in house; host or cells: E. coli BL21 (DE3) RIL

NFAT = NFAT luciferase reporter assay in HEK 293 NFAT cell line expressing DYRK1A; format: cell-based; conditions: various concentrations, 30 min, then ionomycin/PMA 5 h
Protocol: The Renilla luciferase reporter assay was performed in HEK 293 NFAT cell line, constitutively expressing DYRK1A, NFAT and Renilla luciferase under the control of an NFAT-RE promoter. The cells were seeded at 10,000 per well in 96-well white plates (Cellstar, Greiner; Burlington, MA, United States). The following day cells were incubated with the indicated concentration of inhibitor for 30 min, then the medium was changed, and cells were stimulated with 1 μM ionomycin and 10 nM PMA for 5 h. Next, the cell lysate was harvested to measure luciferase activity with Renilla-Glo Luciferase Assay System (Promega, Wisconsin, United States). All experiments were carried out in triplicates.

INS-1E and MIN6 cells [2] = test: Ki67 proliferation analysis; format: cell-based, rat, mouse
DYRK1A [3] = target: T2, DYRK1A; conditions: cited from earlier work
INS-1E cells = test: MTT cytotoxicity and cell survival assay, INS-1E; format: cell-based, rat; conditions: 24 h, 0 to 100 μM
DYRK1A in MIN6 cell line = test: DYRK1A expression by flow cytometry and confocal imaging; format: cell-based, mouse
Protocol: (§1) The presence of insulin, glucagon, C-peptide, Ki67, and DYRK1A was assessed in MIN6 and INS-1E pancreatic cell lines. Before imaging, cells were seeded onto slides at a density of 1 × 10^5 cells and maintained at 37 °C in 95% atmospheric air and 5% CO2 in a humidified atmosphere for 24 h. After washing with fresh medium, cells were incubated with 5 µM inhibitor solution for 24 h. After this time, the solution was replaced with a culture medium for another 48 h. The cells were fixed. Then after washing and permeabilization, they were incubated with specific antibodies diluted in PBS. Next, the cells were incubated for 10 min with Hoechst33342 (Sigma-Aldrich). After incubation, at 37 °C, in the dark, the cells were washed twice with HBSS (Gibco), the slide was transferred to a microscope table, and the cells were visualized under a Zeiss LSM 880 confocal microscope (Carl Zeiss, Jena, Germany) with a 63× immersion objective. Images were analyzed by Zeiss ZEN Software.
(§2) The presence of insulin, glucagon, C-peptide, Ki67 and DYRK1A was assessed in MIN6 and INS-1E pancreatic cell lines. Before analysis, cells were seeded onto slides at a density of 1 × 10^5 cells and maintained at 37 °C in 95% atmospheric air and 5% CO2 in a humidified atmosphere for 24 h. After washing with fresh medium, cells were incubated with 5 µM inhibitor solution for 24 h. After this time, the solution was replaced with a culture medium for another 48 h. The cells were then detached from the plate using trypsin. The cells were fixed. Then after washing and permeabilization, they were incubated with specific antibodies diluted in PBS. Cells were analyzed with BDAccuri flow cytometer and calculated using FlowJo software (Ashland, Oregon-based FlowJo LLC, a subsidiary of Becton Dickinson).

INS-1E and MIN6 cells [4] = test: GSIS and insulin, C-peptide, glucagon staining (flow cytometry, confocal); format: cell-based, rat, mouse; parameters: key to insulin+ / glucagon+ / C-peptide+: ↑: moderate; ↑↑: most potent
Protocol: Cells were cultured in a low glucose medium (5.5 mM) for 24 h. After this medium was changed to lower glucose medium (2 mM) for 2 h and then for high glucose medium (25 mM) for 30 min, media were harvested and/or cells were used for further analysis.
as §1, §2

[5] = test system: hiPSC-derived pancreatic organoids; test: Insulin secretion assay in hiPSC-derived β-cell organoids (ELISA); format: cell-based, human; parameters: key to insulin secretion (ELISA): ↑: moderate; ↑↑: most potent
Protocol: Differentiation of hiPSC into iPSC-derived β-cell islets was carried out following the protocol established by Pellegrini et al. for pluripotent stem cells with slight modifications. A day before differentiation, 800,000 cells were seeded on coated with Geltrex (Gibco) 12 wells plate in Essential 8 medium (Gibco) with Y-27632 10 µM (Abcam). The following culture media were used for differentiation:
M1 medium: MCDB131 (Gibco) + 8 mM D-(þ)-Glucose (Sigma) + 1.23 g/L NaHCO3 (Sigma) + 2% BSA (Sigma) + 0.25 mM Vitamin C (Sigma) + 1% Pen/Strep (Lonza, Basel, Switzerland) + 1% L-glutamine (Lonza);
M2 medium: MCDB131 + 20 mM D-Glucose + 1.754 g/L NaHCO3 + 2% BSA + 0.25 mM Vitamin C + Heparin 10mg/mL (Sigma) + 1% Pen/Strep + 1% L-glutamine. All media were filter-sterilized through a 0.22 µm bottle top filter (Corning, New York, NY, USA). For sequential culture medium changes, small molecules and growth factors were added to the base media immediately before daily exchange. Media switches were as follows: days 0–3: STEMdiff™ Definitive Endoderm Kit ([…], Vancouver, Canada) used following manufacturer instructions; days 4–6: M1 medium + 50 ng/mL KGF (Peprotech, London, UK) + 1:50,000 ITS-X (Invitrogen, Carlsbad, CA, USA); days 7–8: M1 medium + 50 ng/mL KGF + 0.25 µM Sant1 (Sigma) + […] Retinoic acid (RA) (Sigma) + 500 nM PdBU (Millipore, Berlington, MA, United States) + 1:200 ITS-X + 200 nM LDN193189 (only Day 7) (Sigma); days 9–13: M1 medium + 50 ng/mL KGF + 0.25 µM Sant1 + 100 nM RA + 1:200 ITS-X; days 14–18: M2 medium + 0.25 µM Sant1 + 100 nM RA + 1 µM XXI (Millipore) + 10 µM Alk5i II (Selleckchem, Munich, Germany) + 1 µM L-3,30,5-Triiodothyronine (T3) (Sigma) + 20 ng/mL Betacellulin (R&D, Minneapolis, MN, USA) + 1:200 ITS-X.
(§3) The Insulin ELISA (Ultra Sensitive) was used to quantify insulin levels in control and treated organoids and isolated islets from the mouse pancreas (Crystal Chem, Downers Grove, IL, USA). Islets were homogenized in lysis buffer. Obtained buffer lysates and medium samples (after GSIS) were analyzed for total protein level and subsequently processed following the manufacturer’s protocol.

isolated mouse islets = test: Insulin secretion assay in isolated mouse islets (ELISA, immunostaining); format: cell-based; parameters: key to insulin secretion (ELISA): ↑: moderate; ↑↑: most potent; conditions: Table 2, Isolated islets
Protocol: as §3
Mice (male, initially 12 weeks old) were sacrificed by cervical vertebral dislocation. Before starting the incision, their bodies were sprayed with 70% EtOH. A hemostatic clamp was placed on both sides of the small intestine, leaving a small pocket to absorb the collagenase solution into the intestine. Next, 3 mL of cold collagenase solution was introduced into the pancreas through the bile duct. The pancreas was removed from the body and placed in a falcon tube containing 2 mL of collagenase solution. The tube was placed in a water bath at 37 °C. It was incubated for 13 min. At the end of this time, the falcon was shaken vigorously. The collagenase was inactivated with FBS. The sample was centrifuged for 30 s (300× g). This step was repeated 3 times. HBSS was then added to the sample and centrifuged two more times at the same speed as before. After the last centrifugation, HBSS was removed and Percoll (1.045 g/mL) (Sigma-Aldrich) was added. The Percoll solution was left to sediment for 5 min. After this time, the islets were collected from the bottom of the falcon. The step was repeated 3 times. Finally, islets were cultured in RPMI-1640 (Pan Biotech) supplemented with 2 mM L-glutamine (Gibco), 10% fetal bovine serum (FBS) and 1% penicillin/streptomycin and the culture medium was changed daily.
The presence of insulin, C-peptide, glucagon, Pdx-1 and Nkx6.1 was assessed in isolated mouse islets. Islets were fixed in PFA (3.8%) for 30 min, washed with PBS and 0.15% Triton X-100 was added for 1.5 h, then washed again with PBS and samples were transferred to 1% BSA + 0.05% Triton X-100 solution for 3 h. After this time, islets were incubated with primary antibody for 12 h at 4 °C. The secondary antibody was then added for 3 h. Next, the islets were incubated for 10 min with Hoechst33342. After incubation, at 37 °C, in the dark, the samples were washed twice with HBSS, the slide was transferred to a microscope table and the cells were visualized under a Zeiss LSM 880 confocal microscope (Carl Zeiss, Jena, Germany) with a 63× immersion objective. Images were analyzed by Zeiss ZEN Software.

[6] = test system: adult human pancreatic beta cells; parameters: method as in PMID 34335466; conditions: cited from earlier work
INS-1E and MIN6 cells [7] = test: MTT cytotoxicity and cell survival assay, β-cell lines; conditions: Table 2, Cell lines
mTOR = conditions: cited from earlier work
[8] = DYRK1A 0.5 µM, ATP 128 µM, DYRKtide 1 mM

For `NS(=O)(=O)c1ccc(-c2cnc3[nH]cc(-c4cccnc4)c3c2)cc1` [AC12, 4-(3-(pyridin-3-yl)-1H-pyrrolo[2,3-b]pyridin-5-yl)benzenesulfonamide], the Kd (DYRK1A kinase domain) was 380 ± 60 nM, the Ki (DYRK1A [1]; [8]) was 100 ± 30 nM and the Ki (DYRK1A [1]; phosphorylation of substrate peptide) was under 200 nM.
In the case of `COc1ccc(N)cc1-c1cnc(N)c(C(=O)c2cccnc2)n1` [AC22, (3-azanyl-6-(5-azanyl-2-methoxy-phenyl)pyrazin-2-yl)-pyridin-3-yl-methanone], the Kd (DYRK1A kinase domain) is reported as 2600 ± 400 nM, the Ki (DYRK1A [1]; [8]) is reported as 1600 ± 400 nM and the NFAT-controlled luciferase activity (NFAT) is reported as “induced NFAT-controlled luciferase activity in a dose-dependent manner”. For the same compound, the “induction of β-cell proliferation (Ki67 labeling of insulin-labeled cells)” value (INS-1E and MIN6 cells [2]; 5 μM, vs untreated cells) was “most potent in inducing β-cell proliferation”, the IC50 (DYRK1A [3]; DYRK1A, Figure 1, ref Czarna et al. [44]) was over 6000 nM and the Ki (DYRK1A [3]; Table S1, Cook assay, data previously reported, ref 1 (Czarna et al. 2018)) was over 2800 nM.
For `CN1C(=O)[C@H]2CCC[C@H]2N(C2CCCC2)c2nc(Nc3ccc(C(N)=O)cc3)ncc21` [AC23, 4-(((6aS,9aR)-10-cyclopentyl-5-methyl-6-oxo-5,6,6a,7,8,9,9a,10-octahydrocyclopenta[e]pyrimido[5,4-b][1, 4]diazepin-2-yl)amino)benzamide], the Kd (DYRK1A kinase domain) was 12900 ± 2600 nM, the Ki (DYRK1A [1]; [8]) was 1200 ± 400 nM and the NFAT-controlled luciferase activity (NFAT) was “induced NFAT-controlled luciferase activity in a dose-dependent manner”.
With `C=CC(=O)Nc1ccc(C(=O)c2sc(Nc3ccc(N4CCN(C)CC4)cc3OC)nc2N)cc1` [AC25, N-(4-((4-azanyl-2-((2-methoxy-4-(4-methylpiperazin-1-yl)phenyl)amino)-1,3-thiazol-5-yl)carbonyl)phenyl)propenamide] the Kd (DYRK1A kinase domain) was 1100 ± 600 nM, the Ki (DYRK1A [1]; [8]) was 1000 ± 300 nM and the NFAT-controlled luciferase activity (NFAT) was “did not promote NFAT-activity”.
In the case of `C=CC(=O)Nc1cccc(C(=O)c2sc(Nc3ccc(N4CCN(C)CC4)cc3)nc2N)c1` [AC28], the Kd (DYRK1A kinase domain) is reported as 27000 ± 17000 nM, the Ki (DYRK1A [1]; [8]) is reported as 3000 ± 1000 nM and the NFAT-controlled luciferase activity (NFAT) is reported as “did not promote NFAT-activity”.
For `COc1ccc2c(c1)[nH]c1c(C)nccc12` [Harmine, reference compound], the NFAT-controlled luciferase activity (NFAT) was “induced NFAT-controlled luciferase activity in a dose-dependent manner”, the “effect on viability of INS-1E cells” value (INS-1E cells) was “did not show adverse effects” and the “DYRK1A (fluorescence-positive cells, flow cytometry)” value (DYRK1A in MIN6 cell line; MIN6, 24 h with inhibitor, control 74%) was 27.7%. For the same compound, the “DYRK1A signal in confocal imaging” value (DYRK1A in MIN6 cell line; MIN6, vs untreated control) was “reduced”, the insulin/C-peptide secretion (INS-1E and MIN6 cells [4]; GSIS, compound alone) was “enhanced insulin secretion and increases C-peptide levels” and the “C-peptide+” value (INS-1E and MIN6 cells [4]; Table 2, Cell lines) was “↑”. For the same compound, the “glucagon+” value (INS-1E and MIN6 cells [4]; Table 2, Cell lines) was “↑↑”, the “insulin+” value (INS-1E and MIN6 cells [4]; Table 2, Cell lines) was “↑” and the insulin release ([5]; GSIS, compared with untreated control cells) was “markedly increased insulin release”. For the same compound, the “insulin secretion (ELISA)” value ([5]; Table 2, hiPSC) was “↑↑”, the “insulin secretion (ELISA)” value (isolated mouse islets) was “↑” and the increase in proliferation [6] was 2–4%. For the same compound, the toxicity (INS-1E and MIN6 cells [7]) was “no”.
For `Cc1cccc(-c2n[nH]cc2-c2ccc3ncccc3n2)n1` [RepSox, 2-(3-(6-Methyl-2-pyridinyl)-1H-pyrazol-4-yl)-1,5-naphthyridine, reference compound], the “effect on cell proliferation” value (INS-1E and MIN6 cells [2]; TGF-β inhibitor alone) was “did not affect cell proliferation”.
In the case of `Nc1ccc(-c2ccc3ncc4ccc(=O)n(-c5cccc(C(F)(F)F)c5)c4c3c2)cn1` [Torin2, 9-(6-Aminopyridin-3-yl)-1-(3-(trifluoromethyl)phenyl) benzo [h][1, 6] naphthyridin-2 (1 H)-one, reference compound], the NFAT-controlled luciferase activity (NFAT) is given as “did not promote NFAT-activity” and the “potency towards mTOR compared to AC27” value (mTOR) is given as 40 times.
